In one experiment the target is T1, OX2R (Homo sapiens, UniProt O43614).
T1 sequence (O43614 1-444): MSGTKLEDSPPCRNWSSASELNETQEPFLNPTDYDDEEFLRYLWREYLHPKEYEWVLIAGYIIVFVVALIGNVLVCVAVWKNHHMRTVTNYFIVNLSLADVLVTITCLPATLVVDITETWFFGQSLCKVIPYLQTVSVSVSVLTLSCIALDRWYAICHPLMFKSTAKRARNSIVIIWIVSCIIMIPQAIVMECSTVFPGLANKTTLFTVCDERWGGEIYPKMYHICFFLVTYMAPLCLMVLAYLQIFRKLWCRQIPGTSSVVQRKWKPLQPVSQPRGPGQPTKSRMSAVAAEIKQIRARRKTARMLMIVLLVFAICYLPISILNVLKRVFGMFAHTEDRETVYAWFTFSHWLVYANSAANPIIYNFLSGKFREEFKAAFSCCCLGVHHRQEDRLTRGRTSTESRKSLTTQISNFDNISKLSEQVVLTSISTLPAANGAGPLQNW
As to conditions: cited from earlier work.

A further experiment deals with T2, human Orexin 1 receptor (Homo sapiens, UniProt O43613).
T2 construct: stably expressing the full-length human Orexin 1 receptor; expressed in transfected cells; host or cells: CHO-K1 (CHO-K1/hOx1), co-expressing the aequorin photoprotein
T2 sequence (O43613 1-425): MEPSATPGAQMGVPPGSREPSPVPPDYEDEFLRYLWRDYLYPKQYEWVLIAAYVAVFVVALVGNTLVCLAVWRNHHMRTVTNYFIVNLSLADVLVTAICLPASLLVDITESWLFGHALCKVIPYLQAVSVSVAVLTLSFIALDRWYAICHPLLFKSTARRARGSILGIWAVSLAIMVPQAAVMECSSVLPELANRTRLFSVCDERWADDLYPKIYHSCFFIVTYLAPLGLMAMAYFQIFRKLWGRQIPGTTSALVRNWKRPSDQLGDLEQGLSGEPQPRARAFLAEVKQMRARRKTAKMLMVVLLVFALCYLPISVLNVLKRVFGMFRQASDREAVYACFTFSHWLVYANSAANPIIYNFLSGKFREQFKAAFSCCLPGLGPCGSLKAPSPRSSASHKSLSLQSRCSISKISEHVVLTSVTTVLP
Nature of the experiment: Assay A: OX1R IP1 (in vitro OX1R potency). The format is cell-based. Particulars: for Kb: Table 3, read-out: Assay A OX1R Kb (Orexin A concentration); for OX1R potency compared to Example 91 in WO2016/034882 / OX1R selectivity over OX2R (selectivity ratio OX2R Kb/OX1R Kb) compared to Example 91 in WO2016/034882: in words, versus Example 91 in WO2016/034882. The source says:
Activation of the orexin receptors expressed in cell lines results in an increase in intracellular IP3 concentration. IP1, a downstream metabolite of IP3, accumulates in cells following receptor activation and is stable in the presence of LiCl. Using Homogeneous Time-Resolved Fluorescence technology with Lumi4-Tb cryptate (commercially available from Cisbio Bioassay.) and a suitable fluorescence plate reader. […] This technique is used to characterize pharmacological modification of the orexin receptors.
A. In Vitro Testing of OX1R Potency: OX1R IP1
IP1 measurements are performed in CHO-K1 cells stably expressing the full-length human Orexin 1 receptor and the aequorin photoprotein. Cells are cultivated in Ham's nutrient mixture F12 medium with 10% fetal calf serum, in a 37° C., 95% humidity and 5% CO2 incubator. The CHO-K1/hOx1 cell mass is expanded to larger cell numbers. The cells are obtained as frozen cells in cryo-vials and stored until use at −150° C. […] In preparation for the assay, 24 hours before the assay, the cells are thawed at 37° C. and immediately diluted with cell culture medium. After centrifugation, the cell pellet is re-suspended in medium and then distributed into the assay plates with a density of 10000 cells/25 μL per well. The plates are incubated for one hour at room temperature to reduce edge effects before they are incubated for 24 hours at 37° C./5% CO2. Compounds are prepared by an 8-point serial dilution in DMSO and a final dilution step into assay buffer (HBSS with 20 mM HEPES, 0.1% BSA and 50 mM LiCl, pH 7.4) to ensure a final DMSO concentration of 1% in the assay.
(§1) On the day of the assay, cells in the plate are washed twice with 60 μL assay buffer (20 μL buffer remained in the wells after washing), followed by adding 5 μL per well of compounds diluted in assay buffer. After 15 minutes of incubation at room temperature 5 μL per well of Orexin A peptide (final concentration: 0.5 nM and/or 50 nM) dissolved in assay buffer is added to the assay plate. The assay plate is incubated for 60 minutes at 37° C. Then 5 μl per well of Anti-IP1-Cryptate Tb solution and 5 μl per well of IP1-d2 dilution are added and the plate is incubated for a further 60 minutes light protected at room temperature.
8-point four parametric non-linear curve fitting and determination of IC50 values and Hill slopes is performed using a regular analysis software e.g. AssayExplorer (Accelrys). In order to establish an agonist concentration independent parameter, Kb values are calculated using the following equation: IC50/((2+(A/EC50)^n)^1/n−1) (with A=concentration agonist, EC50=EC50 agonist, n=Hill slope agonist).

The target in the next experiment is T3, human orexin 2 receptor (Homo sapiens, UniProt O43614).
T3 construct: stably expressing the full-length human orexin 2 receptor; expressed in transfected cells; host or cells: CHO-K1 (CHO-K1/hOx2), co-expressing the aequorin photoprotein
T3 sequence (O43614 1-444): T1 sequence (O43614 1-444)
Description: Assay B: OX2R IP1 (in vitro OX2R potency). The format is cell-based. As to conditions: Table 3; 0.5 nM Orexin A.
Description: Activation of the orexin receptors expressed in cell lines results in an increase in intracellular IP3 concentration. IP1, a downstream metabolite of IP3, accumulates in cells following receptor activation and is stable in the presence of LiCl. Using Homogeneous Time-Resolved Fluorescence technology with Lumi4-Tb cryptate (commercially available from Cisbio Bioassay.) and a suitable fluorescence plate reader. […] Chem. Genomics 2009, 3, 22-32. This technique is used to characterize pharmacological modification of the orexin receptors.
B. In Vitro Testing of OX2R Potency: OX2R IP1
IP1 measurements are performed in CHO-K1 cells stably expressing the full-length human orexin 2 receptor and the aequorin photoprotein. Cells are cultivated in Ham's nutrient mixture F12 medium with 10% fetal calf serum, in a 37° C., 95% humidity and 5% CO2 incubator. The CHO-K1/hOx2 cell mass is expanded to larger cell numbers. The cells are obtained as frozen cells in cryo-vials and stored until use at −150° C. The viability of the cells after thawing is >90%. In preparation for the assay, 24 hours before the assay, the cells are thawed at 37° C. and immediately diluted with cell culture medium. After centrifugation, the cell pellet is resuspended in medium and then distributed into the assay plates with a density of 5000 cells/25 μL per well. The plates are incubated for one hour at room temperature to reduce edge effects before they are incubated for 24 hours at 37° C./5% CO2. Compounds are prepared by a 8-point serial dilution in DMSO and a final dilution step into assay buffer (HBSS with 20 mM HEPES, 0.1% BSA and 50 mM LiCl, pH 7.4) to ensure a final DMSO concentration of 1% in the assay.
as §1, with “concentration: 0.5 nM) dissolved” for “concentration: 0.5 nM and/or 50 nM) dissolved”, “are added to all well of the plate and the” for “are added and the”, “room temperature. The emission at 615 nm and 665 nm (Excitation wavelength: 320 nm) are measured using an EnVision reader (PerkinElmer). The ratio between the emission at 665 nm and 615 is calculated by the reader.” for “room temperature.”
8-point four parametric non-linear curve fitting and determination of […] values and Hill slopes is performed using a regular analysis software e.g. AssayExplorer (Accelrys). In order to establish an agonist concentration independent parameter, Kb values are calculated using the following equation: IC50/((2+(A/EC50)^n)^1/n−1) (with A=concentration agonist, EC50=EC50 agonist, n=Hill slope agonist) (see P. Leff, I. G. Dougall, Trends Pharmacol. Sci. 1993, 14(4), 110-112).

Like-named read-outs stand apart in the source and are kept apart here.

A word on the IC50: it is the concentration that inhibits the measured activity by half. Take `CC[C@@H](CNc1ncc(C(F)(F)F)cn1)N(C)C(=O)c1c(F)cccc1-n1nccn1` [Ex 91 in WO2016/ 034882]: the “OX2R pIC50” value on OX2R (Table 3 of WO2016/034882) is recorded as less than 5.1. Moreover, on OX2R (corresponds to pIC50 of Table 3 of WO2016/034882), the IC50 was greater than 7950 nM.
As for `CCN(C(=O)c1cccc(C)c1-n1nccn1)[C@@H](C)COc1ncc(C(F)(F)F)cn1` [Example 11], the values for the Kb at human Orexin 1 receptor (0.5 nM Orexin A), at human Orexin 1 receptor (50 nM Orexin A) and at human orexin 2 receptor were 1.3 nM, 1.4 nM and 160 nM, respectively. Besides, at human Orexin 1 receptor, the “OX1R potency compared to Example 91 in WO2016/034882” value is reported as “increase”. At human Orexin 1 receptor, the “OX1R selectivity over OX2R (selectivity ratio OX2R Kb/OX1R Kb) compared to Example 91 in WO2016/034882” value is “increase”.
For `CCN(C(=O)c1ccc(F)cc1-n1nccn1)[C@@H](C)COc1ncc(C(F)(F)F)cn1` [Example 7], the “OX2R Kb/OX1R Kb” value on human Orexin 1 receptor is 201. The Kb at human Orexin 1 receptor (0.5 nM Orexin A) was found to be 4.5 nM; on human orexin 2 receptor it was 902 nM. At human Orexin 1 receptor, the “OX1R selectivity over OX2R (selectivity ratio OX2R Kb/OX1R Kb) compared to Example 91 in WO2016/034882” value is given as “more selective”.
As for `CCN(C(=O)c1ccc(OC)cc1-n1nccn1)[C@@H](C)COc1ncc(C(F)(F)F)cn1` [Example 30], at human Orexin 1 receptor, the “OX2R Kb/OX1R Kb” value amounted to 322, the “OX1R potency compared to Example 91 in WO2016/034882” value is reported as “increase” and the “OX1R selectivity over OX2R (selectivity ratio OX2R Kb/OX1R Kb) compared to Example 91 in WO2016/034882” value is “increase”. The Kb on human Orexin 1 receptor (0.5 nM Orexin A) turned out to be 1.8 nM. Further, the Kb on human orexin 2 receptor was determined as 579 nM.
For the compound `CCN(C(=O)c1cccc(F)c1-c1nnc(C)o1)[C@@H](C)COc1ncc(C(F)(F)F)cn1` [Example 18], on human Orexin 1 receptor, the “OX2R Kb/OX1R Kb” value was 415 and the “OX1R selectivity over OX2R (selectivity ratio OX2R Kb/OX1R Kb) compared to Example 91 in WO2016/034882” value was “increase in OX1R selectivity”. On human Orexin 1 receptor (0.5 nM Orexin A), the Kb stood at 16 nM. At human orexin 2 receptor, this compound displayed a Kb of 6640 nM.
As to `CCN(C(=O)c1ccccc1-c1ncco1)[C@@H](C)COc1ncc(C(F)(F)F)cn1` [Example 36], at human Orexin 1 receptor, the “OX2R Kb/OX1R Kb” value is recorded as 160 and the “OX1R selectivity over OX2R (selectivity ratio OX2R Kb/OX1R Kb) compared to Example 91 in WO2016/034882” value is “increase in OX1R selectivity”. In addition, the Kb on human Orexin 1 receptor (0.5 nM Orexin A) stood at 3.2 nM. The compound further yielded a Kb on human orexin 2 receptor of 511 nM.
For the compound `CCN(C(=O)c1cc(OC)ccc1-n1nccn1)[C@@H](C)COc1ncc(C(F)(F)F)cn1` [Example 14], the Kb at human Orexin 1 receptor (0.5 nM Orexin A) turned out to be 0.97 nM; on human Orexin 1 receptor (50 nM Orexin A), 1.21 nM; at human orexin 2 receptor, 253 nM. The “OX1R potency compared to Example 91 in WO2016/034882” value at human Orexin 1 receptor was “increase”. Also, at human Orexin 1 receptor, the “OX1R selectivity over OX2R (selectivity ratio OX2R Kb/OX1R Kb) compared to Example 91 in WO2016/034882” value is “increase”.
Consider `CCN(C(=O)c1cc(C)ccc1-n1cccn1)[C@@H](C)COc1ncc(C(F)(F)F)cn1` [Example 8], for which, at human Orexin 1 receptor, the “OX2R Kb/OX1R Kb” value came out at 228 and the “OX1R selectivity over OX2R (selectivity ratio OX2R Kb/OX1R Kb) compared to Example 91 in WO2016/034882” value is given as “increase in OX1R selectivity”. In addition, on human Orexin 1 receptor (0.5 nM Orexin A), the Kb is 2.2 nM. The same compound yielded a Kb at human orexin 2 receptor of 502 nM.
On to `CCN(C(=O)c1cccc(F)c1-n1nccn1)[C@@H](C)COc1ncc(C(F)(F)F)cn1` [Example 1], for which the values for the Kb at human Orexin 1 receptor (0.5 nM Orexin A), at human Orexin 1 receptor (50 nM Orexin A) and on human orexin 2 receptor were 1.7 nM, 2.5 nM and 425 nM, respectively. Moreover, the “OX1R selectivity over OX2R (selectivity ratio OX2R Kb/OX1R Kb) compared to Example 91 in WO2016/034882” value at human Orexin 1 receptor is given as “more selective”.
For the compound `CCN(C(=O)c1ccc(C)cc1-c1nnc(C)o1)[C@@H](C)COc1ncc(C(F)(F)F)cn1` [Example 19], at human Orexin 1 receptor, the “OX2R Kb/OX1R Kb” value is listed as 909 and the “OX1R selectivity over OX2R (selectivity ratio OX2R Kb/OX1R Kb) compared to Example 91 in WO2016/034882” value is reported as “increase in OX1R selectivity”. The Kb at human Orexin 1 receptor (0.5 nM Orexin A) was 7.3 nM. The Kb at human orexin 2 receptor worked out at 6640 nM.
Take `CCN(C(=O)c1c(-n2nccn2)ccc(C)c1F)[C@@H](C)COc1ncc(C(F)(F)F)cn1` [Example 34]: at human Orexin 1 receptor, the “OX2R Kb/OX1R Kb” value was found to be 239, the “OX1R potency compared to Example 91 in WO2016/034882” value is listed as “increase in OX1R potency” and the “OX1R selectivity over OX2R (selectivity ratio OX2R Kb/OX1R Kb) compared to Example 91 in WO2016/034882” value is reported as “increase in OX1R selectivity”. Further, the Kb at human Orexin 1 receptor (0.5 nM Orexin A) worked out at 1.8 nM. Besides, the Kb at human orexin 2 receptor turned out to be 431 nM.
`CCN(C(=O)c1cc(F)cc(F)c1-n1nccn1)[C@@H](C)COc1ncc(C(F)(F)F)cn1` [Example 22]: at human Orexin 1 receptor, the “OX2R Kb/OX1R Kb” value is 406 and the “OX1R selectivity over OX2R (selectivity ratio OX2R Kb/OX1R Kb) compared to Example 91 in WO2016/034882” value was “more selective”. On human Orexin 1 receptor (0.5 nM Orexin A), the Kb turned out to be 3.6 nM. On human orexin 2 receptor, this compound registered a Kb of 1460 nM.

The values above are taken from patent US10392369B2, “N-[(pyrimidinyloxy)propanyl]benzamides” (Boehringer Ingelheim International GmbH, priority 2016, dated 2019).
